Experimental data taken from PMC8580996, “2-Oxoglutarate derivatives can selectively enhance or inhibit the activity of human oxygenases” (Nature Communications, 2021).
“And” between values parts separate entries of the source, which are not always exact repeats. Equal entries are not always repeated.

Legend:
Type in all cases: biochemical
[1] = target: T1, FIH (Homo sapiens, UniProt Q9NWT6); assay: SPE-MS FIH turnover (cosubstrate) assay in the absence of 2OG; details: 330 μM 2OG or 2OG derivative, no 2OG, t = 15 min
T1 sequence (Q9NWT6 whole entry): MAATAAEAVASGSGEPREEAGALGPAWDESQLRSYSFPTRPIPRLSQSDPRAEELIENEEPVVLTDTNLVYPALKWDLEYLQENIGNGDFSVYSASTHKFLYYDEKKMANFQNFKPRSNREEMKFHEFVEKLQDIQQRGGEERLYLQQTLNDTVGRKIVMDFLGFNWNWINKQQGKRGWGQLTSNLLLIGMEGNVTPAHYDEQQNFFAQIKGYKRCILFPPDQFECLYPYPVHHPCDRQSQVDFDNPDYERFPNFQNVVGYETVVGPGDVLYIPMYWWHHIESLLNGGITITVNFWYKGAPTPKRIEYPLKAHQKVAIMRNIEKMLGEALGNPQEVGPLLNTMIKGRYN
In short: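 With 2OG omitted, 2OG analogues were tested as cosubstrates for recombinant FIH, and +16 Da hydroxylated product versus remaining substrate was monitored by C4 solid-phase extraction coupled to MS. Percent conversion came from product integral over summed substrate and product integrals.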

[2] = target: T1, FIH; assay: Competition assay in a single reaction vessel, FIH-catalyzed hydroxylation (SPE-MS)
Procedure: Mean of three independent runs (n = 3; mean ± SD). […] Cosubstrates: a 20 μM 2OG; b 20 μM 2OG; c 20 μM 1; d 20 μM 12; e 20 μM 12 and 100 μM 2OG; f 100 μM 14. Source data are provided as a Source Data file.
Mean of three independent runs (n = 3; mean ± SD). […] Source data are provided as a Source Data file.
Peptide turnover was monitored by SPE-MS using the same instrument configuration (with the exception that the peptides were eluted from the SPE cartridge with 0.1%v/v aqueous formic acid in 80/20 v/v acetonitrile/water) as described above.
FIH and AspH-catalyzed peptide hydroxylations were analyzed simultaneously using SPE-MS as described in the
Methods section; competition experiments were performed in the same reaction vessel using equimolar 2OG
oxygenase and substrate concentrations. […]
Source data are provided as a Source Data file.
FIH and AspH-catalyzed peptide hydroxylations were analyzed simultaneously using SPE-
MS as described in the Methods section; competition experiments were performed in the same reaction vessel
using equimolar 2OG oxygenase and substrate concentrations. […]
2OG, 100 μM 14. Source data are provided as a Source Data file.

[3] = target: T1, FIH; assay: 1H NMR assay of FIH-catalyzed oxidative decarboxylation of cosubstrate, with SPE-MS of final mixture; details: 5 μM FIH, 150 μM CA1-20, 150 μM cosubstrate
Procedure: Supplementary Figure 2. […] FIH- […]
catalyzed oxidative decarboxylation of 2OG was monitored using a Bruker AVIII 700 NMR machine equipped with a 5 mm 1H(13C/15N) inverse cryoprobe; spectra were analyzed using the Bruker TopSpin 3.6.1 software.
50 μM ammonium iron(II) sulfate hexahydrate (FAS, (NH4)2Fe(SO4)2·6H2O) in 50 mM aqueous Tris-d11 containing 10% v/v D2O (pH 7.5, 25° C). The ratio of the CA 1-20 peptide and the hydroxylated CA 1-20(Ox) peptide, which is the product of the F IH-catalyzed hydroxylation reaction, was determined using SPE-MS after NMR […]
(a) Close-up (3.0-2.2 ppm) of the 1H NMR spectrum of commercial 2OG in 50 mM aqueous Tris-d11 containing 10%v/v D2O (pH 7.5, 25° C); (b) Close-up (3.0-2.2 ppm) of the 1H NMR spectrum of commercial succinate in 50 […]
FIH-catalyzed oxidative decarboxylation of 3-methyl-2OG (1) was monitored using a Bruker AVIII 700 NMR machine equipped with a 5 mm 1H(13C/15N) inverse cryoprobe; spectra were analyzed using the […]
Bruker TopSpin 3.6.1 software. […]
in 50 mM aqueous Tris -d11 containing 10% v/v D2O (pH 7.5, 25° C). The ratio of the CA 1-20 peptide and the hydroxylated CA 1-20(Ox) peptide, which is the product of the FIH -catalyzed hydroxylation reaction, was […]
(a) Close -up (3.4 -0.9 ppm) of the 1H NMR spectrum of synthetic 1 in 50 mM aqueous Tris-d11 containing 10% v/v D2O (pH 7.5, 2 5° C); ( b) Close -up (3.4 -0.9 ppm) of the 1H NMR spectrum of commercial 2 -methylsuccinate ( 36) […]
FIH-catalyzed oxidative decarboxylation of 4-methyl-2OG (12) was monitored using a Bruker AVIII 700 NMR machine equipped with a 5 mm 1H(13C/15N) inverse cryoprobe; spectra were analyzed using the Bruker TopSpin 3.6.1 software.
(NH4)2Fe(SO4)2·6H2O) in 50 mM aqueous Tris-d11 containing 10% v/v D2O (pH 7.5, 25° C). The ratio of the CA 1-20 peptide and the hydroxylated CA 1-20(Ox) peptide, which is the product of the FI H-catalyzed hydroxylation […]
(a) Close -up (3.3 -0.9 ppm) of the 1H NMR spectrum of synthetic 12 in 50 mM aqueous Tris-d11 containing 10% v/v D2O (pH 7.5, 25° C); ( b) Close -up (3.4 -0.9 ppm) of the 1H NMR spectrum of commercial 2 -methylsuccinate ( 36)

SMILES: O=C(O)CCC(=O)C(=O)O [2OG, 2-Oxoglutarate]
- FIH activity, %-substrate conversion ([1]; CA1–20 substrate): > 95%
- FIH activity, %-substrate conversion ([1]; HIF-1α788–822 substrate): ~50%
- substrate hydroxylation (% conversion) ([2]; Fig 2a, 20 μM 2OG, CA1-20, 0 min): 14.1515 and 16.7791 and 11.5447
- substrate hydroxylation (% conversion) ([2]; Fig 2a, 20 μM 2OG, CA1-20, 0.703167 min): 47.9481 and 47.8258 and 38.5441
- substrate hydroxylation (% conversion) ([2]; Fig 2a, 20 μM 2OG, CA1-20, 2.10933 min): 78.9866 and 77.8293 and 70.1307
- substrate hydroxylation (% conversion) ([2]; Fig 2a, 20 μM 2OG, CA1-20, 2.8135 min): 85.5974 and 84.4447 and 78.5645
- substrate hydroxylation (% conversion) ([2]; Fig 2a, 20 μM 2OG, CA1-20, 3.51633 min): 89.6698 and 89.0396 and 84.1833
- substrate hydroxylation (% conversion) ([2]; Fig 2a, 20 μM 2OG, CA1-20, 4.22 min): 92.631 and 91.777 and 88.07
- substrate hydroxylation (% conversion) ([2]; Fig 2a, 20 μM 2OG, CA1-20, 4.92317 min): 94.369 and 93.7454 and 90.6935
- substrate hydroxylation (% conversion) ([2]; Fig 2a, 20 μM 2OG, CA1-20, 5.62833 min): 95.7579 and 95.0911 and 92.7125
- substrate hydroxylation (% conversion) ([2]; Fig 2a, 20 μM 2OG, CA1-20, 6.33133 min): 97.057 and 96.0828 and 94.1188
- substrate hydroxylation (% conversion) ([2]; Fig 2a, 20 μM 2OG, CA1-20, 7.03583 min): 97.7828 and 96.6689 and 95.1866
- substrate hydroxylation (% conversion) ([2]; Fig 2a, 20 μM 2OG, CA1-20, 7.73917 min): 98.8257 and 97.1902 and 95.7428
- substrate hydroxylation (% conversion) ([2]; Fig 2a, 20 μM 2OG, CA1-20, 8.444 min): 99.4037 and 97.3768 and 96.3319
- substrate hydroxylation (% conversion) ([2]; Fig 2a, 20 μM 2OG, CA1-20, 9.1485 min): 99.7225 and 97.4249 and 96.6951
- substrate hydroxylation (% conversion) ([2]; Fig 2a, 20 μM 2OG, CA1-20, 9.853 min): 99.5637 and 97.3528 and 97.1366
- substrate hydroxylation (% conversion) ([2]; Fig 2a, 20 μM 2OG, CA1-20, 10.558 min): 100 and 97.2891 and 96.8671
- substrate hydroxylation (% conversion) ([2]; Fig 2a, 20 μM 2OG, CA1-20, 11.2623 min): 100 and 94.1661
- substrate hydroxylation (% conversion) ([2]; Fig 2a, 20 μM 2OG, HIF-1a788-822, 0.703167 min): 6.1581 and 8.558 and 6.1761
- substrate hydroxylation (% conversion) ([2]; Fig 2a, 20 μM 2OG, HIF-1a788-822, 2.10933 min): 16.8685 and 19.2149 and 14.7272
- substrate hydroxylation (% conversion) ([2]; Fig 2a, 20 μM 2OG, HIF-1a788-822, 2.8135 min): 22.0351 and 24.2966 and 18.9489
- substrate hydroxylation (% conversion) ([2]; Fig 2a, 20 μM 2OG, HIF-1a788-822, 3.51633 min): 26.9176 and 28.8009 and 23.0891
- substrate hydroxylation (% conversion) ([2]; Fig 2a, 20 μM 2OG, HIF-1a788-822, 4.22 min): 30.085 and 33.3713 and 26.7919
- substrate hydroxylation (% conversion) ([2]; Fig 2a, 20 μM 2OG, HIF-1a788-822, 4.92317 min): 34.7093 and 37.5052 and 30.4684
- substrate hydroxylation (% conversion) ([2]; Fig 2a, 20 μM 2OG, HIF-1a788-822, 5.62833 min): 37.941 and 41.581 and 34.0768
- substrate hydroxylation (% conversion) ([2]; Fig 2a, 20 μM 2OG, HIF-1a788-822, 6.33133 min): 40.9748 and 45.5421 and 37.689
- substrate hydroxylation (% conversion) ([2]; Fig 2a, 20 μM 2OG, HIF-1a788-822, 7.03583 min): 44.2421 and 48.7776 and 41.0727
- substrate hydroxylation (% conversion) ([2]; Fig 2a, 20 μM 2OG, HIF-1a788-822, 7.73917 min): 46.5287 and 52.1147 and 44.2887
- substrate hydroxylation (% conversion) ([2]; Fig 2a, 20 μM 2OG, HIF-1a788-822, 8.444 min): 50.2071 and 55.1688 and 46.8395
- substrate hydroxylation (% conversion) ([2]; Fig 2a, 20 μM 2OG, HIF-1a788-822, 9.1485 min): 52.5573 and 57.8623 and 50.003
- substrate hydroxylation (% conversion) ([2]; Fig 2a, 20 μM 2OG, HIF-1a788-822, 9.853 min): 55.5664 and 60.5077 and 52.8227
- substrate hydroxylation (% conversion) ([2]; Fig 2a, 20 μM 2OG, HIF-1a788-822, 10.558 min): 57.4116 and 62.9095 and 55.0617
- substrate hydroxylation (% conversion) ([2]; Fig 2a, 20 μM 2OG, HIF-1a788-822, 11.2623 min): 59.0832 and 64.3072 and 56.3348
- conversion of CA1–20 ([2]; Fig 2a, 20 μM 2OG, both FIH substrates in one vessel, after 5 min): > 90%
- conversion of HIF-1α788–822 ([2]; Fig 2a, 20 μM 2OG, both FIH substrates in one vessel, after 12 min): ~ 60%
- substrate hydroxylation (% conversion) ([2]; Fig 2b, 20 μM 2OG, FIH, 1.19933 min): 58.5759 and 53.8983
- FIH-catalyzed CA1–20 hydroxylation ([2]; Fig 2b, 20 μM 2OG, after 4 min): > 80%
- FIH-catalyzed substrate turnover ([2]; Fig 4a, 0.5 mM 2OG, absence of 13, after 4 min): ~ 80%
- hydroxylation of CA1-20 peptide in final reaction mixture (SPE-MS) ([3]; t = 10 min): > 95%
- FIH-catalyzed conversion of cosubstrate to succinate / 2-methylsuccinate (1H NMR) ([3]; within 5 min): ~ 70%
